The subject of one data set is soybean William82. Nature of the data set: Spray testing of transgenic soybean T1 seedlings. The class given is in vivo. The conditions noted are these: 4.48 kg/ha foliage spray, 10 days after spraying. The source says: 1. Vector construction: the pQY2330 vector (see FIG. 8-1) was used as the overexpression vector, containing a Bar resistance gene that can be used as a selection marker for glufosinate. The AAD-like gene, QYD42, SEQ ID NO. 83, was linked to the Xho I restriction site by seamless cloning to construct the transgenic expression vector pQY2330, of which the expression cassette consisted of a double CaMV35S promoter, the AAD-like gene QYD42 and a […] Nos terminator.
2. Genetic transformation of soybeans: Soybean transformation was carried out using the Agrobacterium-mediated cotyledon nodes transformation method (Pareddy D, Chennareddy S, Anthony G, et al. Improved soybean transformation for efficient and high throughput transgenic production[J]. Transgenic Research, 2020, 29(968)). A monoclone of the Agrobacterium (EHA105) comprising the overexpression vector pQY2330 was inoculated into 5 ml YEP liquid medium (containing 25 mg/L Rifampicin and 50 mg/L Kanamycin) and shaking-cultured at 220 rmp/min, 28° C. for 8 hours. And then 0.2-0.3 ml bacteria solution was transferred to 200 ml YEP liquid medium (containing 25 mg/L Rifampicin and 50 mg/L Kanamycin) and shaking-cultured at 220 rmp/min, 28° C. overnight until the bacteria reached the exponential growth stage, then centrifuged at 4000 rmp/min for 20 min to collect the cells into a 50 ml centrifuge tube (sterilized). […]

Another data set relates to Arabidopsis thaliana. Kind of data set: Herbicide resistance of transgenic Arabidopsis thaliana seedlings on plate medium (root growth). It counts as in vivo. The conditions noted are these: plate medium: 2,4-D 0.3 μmol; 2,4-DB sodium 0.7 μmol; MCPA 0.1 μmol. The protocol:
Expression in Arabidopsis thaliana was regulated by its AtUbi10 Arabidopsis thaliana ubiquitin promoter and the MAS (mannopine synthase) terminator. Hygromycin resistance gene (HygR=hpt) served as the selection marker.
Preparation of Agrobacterium infection solution: An activated Agrobacterium (GV3101) monoclone was picked and inoculated in 30 ml YEP liquid medium [yeast powder 10 g/L, tryptone 10 g/L, NaCl 5 g/L, 25 mg/L Rifampicin and 50 mg/L Kanamycin], shaking-cultured at 200 rmp/min, 28° C. overnight until the OD600 was about 1.0-1.5, then centrifuged at 6000 rmp/min for 10 min to collect the bacteria, and the supernatant was discarded. Arabidopsis thaliana infection solution (sucrose 50 g/L, Silwet L-77 300 μL/L, no need to adjust pH) was used to resuspend the cells to OD600=0.8 for later use.
Genetic transformation of Arabidopsis thaliana by flower dipping: Before transformation of Arabidopsis thaliana plants, attentions were paid to whether the plants were growing well, the inflorescences were abundant, and no stress response occurred. The first transformation was performed when plants were about 20 cm high. Plants could be properly watered if the soil was dry. The grown siliques were cut off with scissors the day before transformation. The inflorescences of the plants to be transformed were soaked in the above-mentioned Agrobacterium solution for 30 seconds to 1 minute, which was stirred gently during the period. And a layer of liquid film should appear on the infiltrated plant. The transformed plants were cultured in a dark environment for 24 hours, and then taken out and grown in a normal light environment. A second transformation could be performed in the same way a week later. […]

Structures are written as SMILES. Entries after “also recorded” stand apart in the source; their conditions may differ.

For the compound `O=C(O)COc1ccc(Cl)cc1Cl` [2,4-D, (2,4-dichlorophenoxy)acetic acid, reference compound], in the data set with soybean William82, the “Effect of the herbicide spray on non-transgenic soybean William82” value was “all non-transgenic recipient parents died and die”. Also, in the data set on Arabidopsis thaliana, the “Effect of the herbicide on seminal roots of wild-type Col-0” value is recorded as “uncapable of growing roots; also recorded: seminal roots are inhibited; also recorded: seminal roots are not able to grow”.

The values above are taken from patent US20240043859A1, “HERBICIDE-RESISTANT PROTEIN, AND GENE AND USE THEREOF” (QINGDAO KINGAGROOT CHEMICAL COMPOUND CO., LTD., priority 2020, published 2024).
